Source: patent US12215085B2 (priority 2019, dated 2025)
Structures can show the parent of a compound that is named as a salt. Marks after values point to notes of the source that are not given here.

Columns and labels:
[1] = system: rats with beta-amyloid induced senile dementia; experiment: Step-down test, beta-amyloid induced senile dementia rats; format: in vivo, rat; conditions: donepezil hydrochloride 1.75 mg/kg, P<0.05
[2] = system: rats with common carotid artery occlusion-induced vascular dementia; experiment: Step-down test, common carotid artery occlusion-induced vascular dementia rats; format: in vivo, rat
Source text: (§1) A rat blood vessel dementia model was made according to the references [ZHAO Xian-lin, FANG Xiu-bin, LI Dong-pei. Establishment of Vascular Dementia Model in Rats, J Chin Med Univ, 2002, 31 (3): 166-168; WANG Yong-yan, Zhang Bo-li, Editor-in-chief. Modern Chinese Medicine Clinic and Research on Vascular Dementia, People's Medical Publishing House, October 2003, First Version 214]: Chloral hydrate 0.4 g/kg was intraperitoneally injected for anesthetizing rats, and bilateral common carotid arteries were isolated and ligated. The animals were fed for 16 weeks, divided into groups on the last 7 days, and administered. The normal control group and the model group were administrated through the intragastric route with distilled water by 0.5 ml/100 g, the positive control group was administrated through the intragastric route with donepezil hydrochloride by 1.75 mg/kg (equivalent to 3.85 times the clinical daily dosage of 5 mg/70 kg), the low, medium and high-dose groups of Crystal Form A of octahydroaminoacridine succinate were administrated through the intragastric route with Crystal Form A of octahydroaminoacridine succinate by 0.7, 1.4 and 2.8 mg/kg (equivalent to 0.96, 1.92 and 3.85 times the clinical daily dosage of 8 mg/70 kg). The water maze test and the step-down test were carried out after continuous administration for 7 days, and the administration was continued during the test period. The water maze test was continuously performed for 7 days, in the first 6 days, in four different water entry points of quadrants 1, 2, 3 and 4, the time, the swimming path length, the orientation angle and the average speed of the rat reaching the platform were measured, meanwhile, the strategy for reaching the platform adopted by rats was observed, on the 7th day, the platform was removed, the number of rats crossing the platform in 2 minutes, the residence time in the platform area, the residence time in the platform quadrants, the percentage of the swimming path length in the platform area quadrants to the total swimming path length, the average speed and the orientation angle were measured. After the water maze test was finished, the step-down test was performed, and the number of electric shocks (or called as the error number) received by each rat within 5 minutes was recorded as the learning performance. The test was performed again after 24 hours, namely, the memory retention test, and the latent period for stepping-down the platform for the first time and the error number in five minutes were recorded. After the step-down test was finished, the brain was taken quickly for pathological examination, and the pathological changes of the hippocampus and the cortex were observed.

[3] = system: rats with beta-amyloid induced senile dementia; experiment: Water maze test, beta-amyloid induced senile dementia rats; format: in vivo, rat; conditions: for adopted strategy for reaching the platform (the peripheral type and the random type %) / orientation angle for reaching the platform / speed for reaching the platform / swimming path length for reaching the platform / time for reaching the platform: 1.75 mg/kg intragastric; for orientation angle for reaching the platform / speed for reaching the platform / swimming path length for reaching the platform / time for reaching the platform: x ± s
[4] = system: rats with common carotid artery occlusion-induced vascular dementia; experiment: Water maze test, common carotid artery occlusion-induced vascular dementia rats; format: in vivo, rat; conditions: for orientation angle for reaching the platform / speed for reaching the platform / swimming path length for reaching the platform / time for reaching the platform: x ± s
Source text: as §1

[5] = system: cholinesterase B (Homo sapiens); experiment: In vitro inhibition of cholinesterase B; format: biochemical; conditions: in vitro tests; multiple of rivastigmine
Chain of cholinesterase B (Homo sapiens) (P22303 32-614): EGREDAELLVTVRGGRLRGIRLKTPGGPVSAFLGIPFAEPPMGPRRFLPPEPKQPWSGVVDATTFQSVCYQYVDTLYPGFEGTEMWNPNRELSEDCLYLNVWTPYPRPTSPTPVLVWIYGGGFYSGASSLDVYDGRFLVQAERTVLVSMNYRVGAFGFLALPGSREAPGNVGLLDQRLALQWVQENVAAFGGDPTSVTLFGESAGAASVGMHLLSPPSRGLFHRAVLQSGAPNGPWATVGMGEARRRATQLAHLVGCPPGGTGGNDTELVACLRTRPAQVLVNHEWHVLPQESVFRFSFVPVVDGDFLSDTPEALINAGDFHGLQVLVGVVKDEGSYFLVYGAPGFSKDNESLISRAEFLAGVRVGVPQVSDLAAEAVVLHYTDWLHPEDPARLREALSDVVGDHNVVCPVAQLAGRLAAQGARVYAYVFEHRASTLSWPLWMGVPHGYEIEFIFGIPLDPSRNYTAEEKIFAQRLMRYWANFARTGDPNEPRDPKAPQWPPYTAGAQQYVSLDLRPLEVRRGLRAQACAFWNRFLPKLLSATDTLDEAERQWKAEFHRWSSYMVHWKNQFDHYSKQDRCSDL

[6] = target: cholinesterase D (Homo sapiens, UniProt P06276); format: biochemical; conditions: in vitro tests; multiple of rivastigmine
Chain of cholinesterase D (P06276 29-602): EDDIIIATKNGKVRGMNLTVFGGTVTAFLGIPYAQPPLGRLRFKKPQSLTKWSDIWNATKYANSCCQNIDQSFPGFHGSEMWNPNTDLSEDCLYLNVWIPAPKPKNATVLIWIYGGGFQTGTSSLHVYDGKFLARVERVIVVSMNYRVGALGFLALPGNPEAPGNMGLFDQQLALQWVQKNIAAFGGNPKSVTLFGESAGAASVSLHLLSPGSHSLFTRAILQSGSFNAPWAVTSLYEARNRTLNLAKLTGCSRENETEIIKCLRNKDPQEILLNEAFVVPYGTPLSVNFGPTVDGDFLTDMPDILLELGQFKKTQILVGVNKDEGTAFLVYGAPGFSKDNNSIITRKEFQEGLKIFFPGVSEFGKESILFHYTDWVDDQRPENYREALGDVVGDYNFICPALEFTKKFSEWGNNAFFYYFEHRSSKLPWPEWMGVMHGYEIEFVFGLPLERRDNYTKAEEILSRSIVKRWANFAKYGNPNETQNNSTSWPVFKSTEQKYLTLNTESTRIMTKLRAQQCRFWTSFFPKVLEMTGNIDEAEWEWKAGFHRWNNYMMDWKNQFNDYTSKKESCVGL

[7] = donepezil hydrochloride 1.75 mg/kg, Day 2, P<0.05
[8] = step-down method, 1.75 mg/kg intragastric, x ± s
[9] = donepezil hydrochloride 1.75 mg/kg, Day 1 to Day 6
[10] = donepezil hydrochloride 1.75 mg/kg, Day 7
[11] = donepezil hydrochloride 1.75 mg/kg, Day 7, P<0.05
[12] = donepezil hydrochloride 1.75 mg/kg, P<0.05 or P<0.01

Compound: COc1cc2c(cc1OC)C(=O)C(CC1CCN(Cc3ccccc3)CC1)C2 (centres unmarked) [Positive control group, donepezil hydrochloride]
- step-down error number vs model group ([1]; Day 1 and Day 2): obviously reduced
- error latency vs model group ([1]; Day 2): obviously prolonged
- step-down error number vs model group ([2]; donepezil hydrochloride 1.75 mg/kg, Day 1 and Day 2, P<0.05): obviously reduced
- error latency vs model group [2, 7]: obviously prolonged
- Day 1, Error number [2, 8]: 5.40 ± 3.06
- Day 2, Error latency [2, 8]: 244.10 ± 77.83 s
- Day 2, Error number [2, 8]: 1.10 ± 1.28
- adopted strategy for reaching the platform (the peripheral type and the random type %) ([3]; Day 1): 97.50%
- orientation angle for reaching the platform ([3]; Day 1): 75.41 ± 22.31 °
- speed for reaching the platform ([3]; Day 1): 16.03 ± 4.22 cm/s
- swimming path length for reaching the platform ([3]; Day 1): 1029.43 ± 453.12 cm
- time for reaching the platform ([3]; Day 1): 72.43 ± 30.97 s
- adopted strategy for reaching the platform (the peripheral type and the random type %) ([3]; Day 2): 75.00%
- orientation angle for reaching the platform ([3]; Day 2): 50.14 ± 23.02 °
- speed for reaching the platform ([3]; Day 2): 20.78 ± 5.83 cm/s
- swimming path length for reaching the platform ([3]; Day 2): 762.34 ± 562.06 cm
- time for reaching the platform ([3]; Day 2): 38.98 ± 33.812 s
- adopted strategy for reaching the platform (the peripheral type and the random type %) ([3]; Day 3): 77.50%
- orientation angle for reaching the platform ([3]; Day 3): 52.85 ± 27.04 °
- speed for reaching the platform ([3]; Day 3): 19.15 ± 4.64 cm/s
- swimming path length for reaching the platform ([3]; Day 3): 572.83 ± 576.82 cm
- time for reaching the platform ([3]; Day 3): 34.41 ± 37.35 s
- adopted strategy for reaching the platform (the peripheral type and the random type %) ([3]; Day 4): 62.50** %
- orientation angle for reaching the platform ([3]; Day 4): 46.37 ± 17.86 °
- speed for reaching the platform ([3]; Day 4): 22.07 ± 8.05 cm/s
- swimming path length for reaching the platform ([3]; Day 4): 312.04 ± 316.86 cm
- time for reaching the platform ([3]; Day 4): 29.32 ± 39.89 s
- adopted strategy for reaching the platform (the peripheral type and the random type %) ([3]; Day 5): 67.50** %
- orientation angle for reaching the platform ([3]; Day 5): 50.54 ± 24.98 °
- speed for reaching the platform ([3]; Day 5): 19.67 ± 3.94 cm/s
- swimming path length for reaching the platform ([3]; Day 5): 495.72 ± 380.99 cm
- time for reaching the platform ([3]; Day 5): 29.16 ± 24.95 s
- adopted strategy for reaching the platform (the peripheral type and the random type %) ([3]; Day 6): 62.50* %
- orientation angle for reaching the platform ([3]; Day 6): 44.21 ± 34.00 °
- speed for reaching the platform ([3]; Day 6): 18.28 ± 5.12 cm/s
- swimming path length for reaching the platform ([3]; Day 6): 413.33 ± 483.35 cm
- time for reaching the platform ([3]; Day 6): 28.99 ± 35.61 s
- swimming speed vs model group [3, 9]: not obviously changed
- latent period for reaching the platform vs model group ([3]; donepezil hydrochloride 1.75 mg/kg, Day 1 to Day 6, no statistical significance): shortened trend
- orientation angle vs model group [3, 7]: obviously decreased
- swimming path length for reaching the platform vs model group ([3]; donepezil hydrochloride 1.75 mg/kg, Day 4, P<0.05): obviously shortened
- average speed and orientation angle vs model group [3, 10]: not obviously changed
- number of crossing the platform vs model group [3, 11]: obviously increased
- percentage of the swimming path length in the platform area quadrants to the total swimming path length vs model group [3, 11]: obviously increased
- residence time in the platform area vs model group [3, 11]: obviously increased
- residence time in the platform quadrants within 2 minutes vs model group [3, 11]: obviously increased
- conversion from the peripheral type and the random type to the tendency type and the linear type in the strategy for looking for the platform [3, 12]: obviously increased
- adopted strategy for reaching the platform (the peripheral type and the random type %) ([4]; Day 1, 1.75 mg/kg intragastric): 65.00* %
- orientation angle for reaching the platform ([4]; Day 1, 1.75 mg/kg intragastric): 58.85 ± 15.35 °
- speed for reaching the platform ([4]; Day 1, 1.75 mg/kg intragastric): 21.15 ± 5.56 cm/s
- swimming path length for reaching the platform ([4]; Day 1, 1.75 mg/kg intragastric): 1105.00 ± 578.29 cm
- time for reaching the platform ([4]; Day 1, 1.75 mg/kg intragastric): 58.42 ± 23.42 s
- adopted strategy for reaching the platform (the peripheral type and the random type %) ([4]; Day 2, 1.75 mg/kg intragastric): 62.50%
- orientation angle for reaching the platform ([4]; Day 2, 1.75 mg/kg intragastric): 61.54 ± 17.41 °
- speed for reaching the platform ([4]; Day 2, 1.75 mg/kg intragastric): 22.68 ± 5.82 cm/s
- swimming path length for reaching the platform ([4]; Day 2, 1.75 mg/kg intragastric): 579.08 ± 316.12 cm
- time for reaching the platform ([4]; Day 2, 1.75 mg/kg intragastric): 33.96 ± 17.06 s
- adopted strategy for reaching the platform (the peripheral type and the random type %) ([4]; Day 3, 1.75 mg/kg intragastric): 62.50* %
- orientation angle for reaching the platform ([4]; Day 3, 1.75 mg/kg intragastric): 48.94 ± 13.42 °
- speed for reaching the platform ([4]; Day 3, 1.75 mg/kg intragastric): 21.19 ± 3.15 cm/s
- swimming path length for reaching the platform ([4]; Day 3, 1.75 mg/kg intragastric): 606.25 ± 279.18 cm
- time for reaching the platform ([4]; Day 3, 1.75 mg/kg intragastric): 30.17 ± 14.50 s
- adopted strategy for reaching the platform (the peripheral type and the random type %) ([4]; Day 4, 1.75 mg/kg intragastric): 67.50%
- orientation angle for reaching the platform ([4]; Day 4, 1.75 mg/kg intragastric): 58.94 ± 22.56 °
- speed for reaching the platform ([4]; Day 4, 1.75 mg/kg intragastric): 25.79 ± 9.79 cm/s
- swimming path length for reaching the platform ([4]; Day 4, 1.75 mg/kg intragastric): 615.78 ± 385.17 cm
- time for reaching the platform ([4]; Day 4, 1.75 mg/kg intragastric): 23.92 ± 12.45 s
- adopted strategy for reaching the platform (the peripheral type and the random type %) ([4]; Day 5, 1.75 mg/kg intragastric): 50.00%
- orientation angle for reaching the platform ([4]; Day 5, 1.75 mg/kg intragastric): 49.64 ± 17.65 °
- speed for reaching the platform ([4]; Day 5, 1.75 mg/kg intragastric): 24.88 ± 8.76 cm/s
- swimming path length for reaching the platform ([4]; Day 5, 1.75 mg/kg intragastric): 586.80 ± 405.09 cm
- time for reaching the platform ([4]; Day 5, 1.75 mg/kg intragastric): 21.94 ± 11.16 s
- adopted strategy for reaching the platform (the peripheral type and the random type %) ([4]; Day 6, 1.75 mg/kg intragastric): 47.50** %
- orientation angle for reaching the platform ([4]; Day 6, 1.75 mg/kg intragastric): 53.54 ± 19.68 °
- speed for reaching the platform ([4]; Day 6, 1.75 mg/kg intragastric): 21.02 ± 6.67 cm/s
- swimming path length for reaching the platform ([4]; Day 6, 1.75 mg/kg intragastric): 348.06 ± 202.65 cm
- time for reaching the platform ([4]; Day 6, 1.75 mg/kg intragastric): 17.87 ± 12.66 s
- Average speed ([4]; Day 7, 1.75 mg/kg intragastric): 24.60 ± 10.18 cm/s
- Number of crossing the platform ([4]; Day 7, 1.75 mg/kg intragastric): 9.40 ± 5.16
- Orientation angle ([4]; Day 7, 1.75 mg/kg intragastric): 9.40 ± 5.17 °
- Swimming path length in the platform area/total swimming path length × 100% ([4]; Day 7, 1.75 mg/kg intragastric): 33.02 ± 9.98%
- Time in the platform area ([4]; Day 7, 1.75 mg/kg intragastric): 3.06 ± 2.24 s
- Time in the platform quadrants ([4]; Day 7, 1.75 mg/kg intragastric): 42.21 ± 12.71 s
- orientation angle and swimming speed vs model group [4, 9]: not obviously changed
- swimming path length for reaching the platform vs model group ([4]; donepezil hydrochloride 1.75 mg/kg, Day 2, Day 3 and Day 6, P<0.05): obviously shortened
- latent period for reaching the platform vs model group ([4]; donepezil hydrochloride 1.75 mg/kg, Day 5 and Day 6, P<0.05 or P<0.01): obviously shortened
- average speed and orientation angle vs model group [4, 10]: not obviously changed
- residence time in the platform quadrants within 2 minutes vs model group [4, 11]: obviously increased
- number of crossing the platform, residence time in the platform area, and percentage of the swimming path length in the platform area quadrants to the total swimming path length vs model group ([4]; donepezil hydrochloride 1.75 mg/kg, Day 7, no statistical significance): increased trend
- conversion from the peripheral type or the random type to the tendency type or the linear type in the strategy for looking for the platform [4, 12]: obviously increased

Compound: Nc1c2c(nc3c1CCCC3)CCCC2.O=C(O)CCC(=O)O [octahydroaminoacridine succinate, 9-amino-1,2,3,4,5,6,7,8-octahydroacridine succinate]
- inhibiting ability to cholinesterase B relative to rivastigmine [5]: 500 times
- inhibiting ability to cholinesterase D relative to rivastigmine [6]: 2000 times
